Results reported in patent US12441736B2, “KIF18A inhibitors” (AMGEN INC., priority 2018, dated 2025).

target: T1, Recombinant human KIF18A (1-467 His-tagged) protein (Homo sapiens, UniProt Q8NI77); test: KIF18A Enzyme Assay: microtubule-stimulated ATPase activity (ADP-Glo); assay type: biochemical; details: 30 nM KIF18A, 30 μg/mL pig microtubules, 75 μM ATP, ADP-Glo luminescence
T1 construct: Recombinant human KIF18A (1-467 His-tagged) protein; His; made in house
Text: KIF18A Enzyme Assay: Microtubule-stimulated ATPase activity assay is used to measure KIF18A enzyme activity after treatment with compound. Compounds were 2-fold serially diluted in DMSO (Sigma Inc) over 22-point concentration range. Recombinant human KIF18A (1-467 His-tagged) protein was expressed using a baculovirus system and purified by affinity chromatography by Amgen Inc. Concentrations of KIF18A protein, microtubules (MT), and ATP in the reaction were optimized for standardized homogenous enzyme assay using ADP-Glo™ Kinase/ATPase Assay Kit (Promega Inc). The assay measures ADP formed from the ATPase reaction. Prepare reaction buffer [(15 mM Tris, pH 7.5 (Teknova Inc), 10 mM MgCl2 (IT Baker Inc), 0.01% Pluronic F-68 (Life Technologies Inc), 1 μM Taxol (Cytoskeleton Inc), and 30 μg/mL pig microtubules (Cytoskeleton Inc)]. Add compound and KIF18A protein (30 nM) to prepared reaction buffer and incubated for 15 minutes at room temperature, next add ATP (at Kin, 75 μM) to the reaction mixture and incubated for an additional 15 minutes at room temperature. Mix 5 μl of ADP-Glo™ Reagent and 2.5 μl of the reaction mixture and incubate for 40 minutes at room temperature. Add 10 μl ADP-Glo™ Detection Reagent and incubate for 40 minutes at room temperature. Read luminescence using EnVision microplate reader with ultra-luminescence module (Perkin Elmer Inc). Concentration-response curve-fitting and IC50 determination was performed using Genedata Screener Software (Standard 15.0.1, Genedata Inc) with a four-parameter logistic regression fit model.
Table A provides data for compounds exemplified in the present application and priority document thereof, as representative compounds of the present invention, as follows: chemical name (as named by either ACD software or ChemDraw (Professional 15.0)) and biological data (IC50 in μM). Ex. # refers to Example No.

T1 sequence (Q8NI77 1-467): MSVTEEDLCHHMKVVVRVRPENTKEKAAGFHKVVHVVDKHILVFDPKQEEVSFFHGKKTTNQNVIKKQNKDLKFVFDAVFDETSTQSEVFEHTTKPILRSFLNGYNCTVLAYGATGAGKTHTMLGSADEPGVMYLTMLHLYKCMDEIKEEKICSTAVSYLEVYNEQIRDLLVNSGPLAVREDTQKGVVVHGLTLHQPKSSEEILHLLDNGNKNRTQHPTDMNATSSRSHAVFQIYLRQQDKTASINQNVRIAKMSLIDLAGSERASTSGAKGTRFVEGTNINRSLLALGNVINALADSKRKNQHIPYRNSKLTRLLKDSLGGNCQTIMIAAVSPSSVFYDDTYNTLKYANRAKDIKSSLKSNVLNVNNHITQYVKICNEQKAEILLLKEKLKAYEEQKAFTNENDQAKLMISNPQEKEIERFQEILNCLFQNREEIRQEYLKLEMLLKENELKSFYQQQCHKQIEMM
T1 sequence (P02550 whole entry partner): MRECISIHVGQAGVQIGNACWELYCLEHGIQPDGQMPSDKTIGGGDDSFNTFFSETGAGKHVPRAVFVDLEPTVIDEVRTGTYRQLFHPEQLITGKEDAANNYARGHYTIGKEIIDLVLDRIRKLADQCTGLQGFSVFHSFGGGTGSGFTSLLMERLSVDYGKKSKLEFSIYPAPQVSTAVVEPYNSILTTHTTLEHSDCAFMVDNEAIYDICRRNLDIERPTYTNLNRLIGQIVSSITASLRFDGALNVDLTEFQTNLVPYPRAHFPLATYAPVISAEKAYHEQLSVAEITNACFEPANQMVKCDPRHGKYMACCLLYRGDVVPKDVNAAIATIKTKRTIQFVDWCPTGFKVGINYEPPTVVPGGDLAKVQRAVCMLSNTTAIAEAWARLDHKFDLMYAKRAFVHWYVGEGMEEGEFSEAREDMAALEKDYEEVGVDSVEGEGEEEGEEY
T1 sequence (P02554 whole entry partner): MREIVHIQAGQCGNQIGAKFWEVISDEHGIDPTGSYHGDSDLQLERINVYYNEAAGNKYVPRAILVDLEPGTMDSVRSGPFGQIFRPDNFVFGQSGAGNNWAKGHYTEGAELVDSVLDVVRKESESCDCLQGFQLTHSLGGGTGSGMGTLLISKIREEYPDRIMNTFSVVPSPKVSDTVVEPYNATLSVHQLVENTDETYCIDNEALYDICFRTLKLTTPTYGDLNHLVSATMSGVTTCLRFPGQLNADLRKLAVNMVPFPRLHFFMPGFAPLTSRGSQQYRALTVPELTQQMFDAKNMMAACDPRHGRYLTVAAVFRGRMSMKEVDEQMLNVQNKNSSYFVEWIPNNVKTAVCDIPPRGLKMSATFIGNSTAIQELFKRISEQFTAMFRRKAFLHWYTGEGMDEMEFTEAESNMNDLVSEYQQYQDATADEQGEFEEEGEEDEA

Structure (SMILES)	IC50
Cc1cc(NC(=O)c2ccc(NC(C)(C)CCO)nc2N2CCC3(CC2)CC3)nc(N2CCOCC2)c1 [Example 211, 2-(6-azaspiro[2.5]octan-6-yl)-6-((4-hydroxy-2-methyl-2-butanyl)amino)-N-(4-methyl-6-(4-morpholinyl)-2-pyridinyl)-3-pyridinecarboxamide]	142 nM
C[C@@H]1CN(c2cccc(NC(=O)c3ccc([C@@](C)(O)CO)nc3N3CCC4(CC3)CC4)n2)CCO1 [Example 168, 2-(6-azaspiro[2.5]octan-6-yl)-6-((2R)-1,2-dihydroxy-2-propanyl)-N-(6-((2R)-2-methyl-4-morpholinyl)-2-pyridinyl)-3-pyridinecarboxamide]	88.7 nM
CC(O)(c1ccc(NC(=O)c2cccc(N3CCOCC3)n2)c(N2CCC3(CC2)CC3)n1)C(F)(F)F (centres unmarked) [Example 246, N-(2-(6-Azaspiro[2.5]octan-6-yl)-6-(1,1,1-trifluoro-2-hydroxypropan-2-yl)pyridin-3-yl)-6-morpholinopicolinamide]	292 nM
C[C@H]1CN(c2cccc(NC(=O)c3ncc(NC(C)(C)CO)nc3N3CCC4(CC3)CC4)n2)C[C@H](C)O1 (racemic) [Example 111, N-(6-((2S,6S)-2,6-dimethylmorpholino)pyridin-2-yl)-5-((1-hydroxy-2-methylpropan-2-yl)amino)-3-(6-azaspiro[2.5]octan-6-yl)pyrazine-2-carboxamide]	110 nM
Cc1cc(NC(=O)c2ccc(CS(C)(=O)=O)nc2N2CCC3(CC2)CC3)nc(N2CCOCC2)c1 [Example 240, 2-(6-azaspiro[2.5]octan-6-yl)-N-(4-methyl-6-(4-morpholinyl)-2-pyridinyl)-6-((methylsulfonyl)methyl)-3-pyridinecarboxamide]	107 nM
C[C@@H]1CN(c2cccc(NC(=O)c3ccc([C@@](O)(CO)C(F)(F)F)nc3N3CCC4(CC3)CC4)n2)CCO1 (single isomer, unassigned) [Example 206]	116 nM
Cc1cc(NC(=O)c2ccc(NC(C)(C)CO)nc2N2CCC3(CC2)CC3)nc(N2CCC[C@@H](O)C2)c1 [Example 227, 2-(6-azaspiro[2.5]octan-6-yl)-6-((1-hydroxy-2-methyl-2-propanyl)amino)-N-(6-((3R)-3-hydroxy-1-piperidinyl)-4-methyl-2-pyridinyl)-3-pyridinecarboxamide]	142 nM
CN1CCN(c2cccc(NC(=O)c3ccc(NC(C)(C)CO)nc3N3CCC4(CC3)CC4)n2)CC1 [Example 133, 2-(6-azaspiro[2.5]oct-6-yl)-6-((2-hydroxy-1,1-dimethylethyl)amino)-N-(6-(4-methyl-1-piperazinyl)-2-pyridinyl)-3-pyridinecarboxamide]	604 nM
Cc1cc(NC(=O)c2ccc(NC(C)(C)CO)nc2N2CCC3(CC2)CC3)nc(NC(C)(C)CO)c1 [Example 170, 2-(6-azaspiro[2.5]octan-6-yl)-6-((1-hydroxy-2-methyl-2-propanyl)amino)-N-(6-((1-hydroxy-2-methyl-2-propanyl)amino)-4-methyl-2-pyridinyl)-3-pyridinecarboxamide]	157 nM
CNS(=O)(=O)c1ccc(C(=O)Nc2cccc(N3CCO[C@H](C)C3)n2)c(N2CCC3(CC2)CC3)n1 [Example 223, (R)-N-(6-(2-methylmorpholino)pyridin-2-yl)-6-(N-methylsulfamoyl)-2-(6-azaspiro[2.5]octan-6-yl)nicotinamide]	79.4 nM
CC(C)(C)NS(=O)(=O)c1cccc(NC(=O)c2ccc(NC(C)(C)CO)nc2N2CCC3(CC2)CC3)n1 [Example 123, 2-(6-azaspiro[2.5]oct-6-yl)-N-(6-(tert-butylsulfamoyl)-2-pyridinyl)-6-((2-hydroxy-1,1-dimethylethyl)amino)-3-pyridinecarboxamide]	64 nM
C[C@H]1CN(c2cccc(NC(=O)c3ccc(NC(C)(C)CO)nc3N3CCC4(CC3)CC4)n2)C[C@H](C)O1 (racemic) [Example 150, N-(6-((2S,6S)-2,6-dimethylmorpholino)pyridin-2-yl)-6-((1-hydroxy-2-methylpropan-2-yl)amino)-2-(6-azaspiro[2.5]octan-6-yl)nicotinamide]	99.7 nM
CC(C)(CO)Nc1ccc(C(=O)Nc2cccc(C3=CCOCC3)n2)c(N2CCC3(CC2)CC3)n1 [Example 138, 2-(6-azaspiro[2.5]oct-6-yl)-N-(6-(3,6-dihydro-2H-pyran-4-yl)-2-pyridinyl)-6-((1-hydroxy-2-methyl-2-propanyl)amino)-3-pyridinecarboxamide]	82.9 nM
C[C@H]1CN(c2cccc(NC(=O)c3ccc(NC(C)(C)CO)nc3N3CCC4(CC3)CC4)n2)[C@@H](C)CO1 (racemic) [Example 199, N-(6-((2S,5S)-2,5-dimethylmorpholino)pyridin-2-yl)-6-((1-hydroxy-2-methylpropan-2-yl)amino)-2-(6-azaspiro[2.5]octan-6-yl)nicotinamide]	243 nM
C[C@@H]1CN(c2cccc(NC(=O)c3ccc([C@](O)(CO)C(F)(F)F)nc3N3CCC4(CC3)CC4)n2)CCO1 (single isomer, unassigned) [Example 207]	105 nM
C[C@H]1CCN(c2cccc(NC(=O)c3ncc(NC(C)(C)CO)nc3N3CCC4(CC3)CC4)n2)C1 [Example 105, 3-(6-azaspiro[2.5]oct-6-yl)-5-((1-hydroxy-2-methyl-2-propanyl)amino)-N-(6-((3S)-3-methyl-1-pyrrolidinyl)-2-pyridinyl)-2-pyrazinecarboxamide]	122 nM

The remaining compounds from weak to strong by IC50, led by results:

IC50	Structure (SMILES)
1520 nM	CC(C)(CO)Nc1ccc(C(=O)Nc2cccc(N3CCCC(NC(=O)OC(C)(C)C)C3)n2)c(N2CCC3(CC2)CC3)n1 (centres unmarked) [Example 234, tert-butyl (1-(6-(6-((1-hydroxy-2-methylpropan-2-yl)amino)-2-(6-azaspiro[2.5]octan-6-yl)nicotinamido)pyridin-2-yl)piperidin-3-yl)carbamate]
402 nM	COc1cc(NC(=O)c2ccc(NC(C)(C)CO)nc2N2CCC3(CC2)CC3)nc(N2CCOCC2)c1 [Example 158, 2-(6-azaspiro[2.5]octan-6-yl)-6-((1-hydroxy-2-methyl-2-propanyl)amino)-N-(4-methoxy-6-(4-morpholinyl)-2-pyridinyl)-3-pyridinecarboxamide]
388 nM	CC(C)(CO)Nc1ccc(C(=O)Nc2cccc(N3CCCC(N)C3)n2)c(N2CCC3(CC2)CC3)n1 (centres unmarked) [Example 236, N-(6-(3-aminopiperidin-1-yl)pyridin-2-yl)-6-((1-hydroxy-2-methylpropan-2-yl)amino)-2-(6-azaspiro[2.5]octan-6-yl)nicotinamide]
278 nM	CC(C)(CO)Nc1ccc(C(=O)Nc2cc(C3CC3)cc(N3CCOCC3)n2)c(N2CCC3(CC2)CC3)n1 [Example 160, 2-(6-azaspiro[2.5]octan-6-yl)-N-(4-cyclopropyl-6-(4-morpholinyl)-2-pyridinyl)-6-((1-hydroxy-2-methyl-2-propanyl)amino)-3-pyridinecarboxamide]
196 nM	CC(C)(C)NS(=O)(=O)c1cccc(NC(=O)c2ccc(C(F)CO)nc2N2CCC3(CC2)CC3)n1 (centres unmarked) [Example 195, N-(6-(N-(tert-butyl)sulfamoyl)pyridin-2-yl)-6-(1-fluoro-2-hydroxyethyl)-2-(6-azaspiro[2.5]octan-6-yl)nicotinamide]
136 nM	CC1(O)CCCN(c2cccc(NC(=O)c3ccc(NC(C)(C)CO)nc3N3CCC4(CC3)CC4)n2)C1 (stereo not drawn) [Example 229, 6-((1-hydroxy-2-methylpropan-2-yl)amino)-N-(6-(3-hydroxy-3-methylpiperidin-l-yl)pyridin-2-yl)-2-(6-azaspiro[2.5]octan-6-yl)nicotinamide]
95.3 nM	CC1(C)CCN(c2cccc(NC(=O)c3ccc(NC(C)(C)CO)nc3N3CCC4(CC3)CC4)n2)C1 [Example 128, 2-(6-azaspiro[2.5]oct-6-yl)-N-(6-(3,3-dimethyl-l-pyrrolidinyl)-2-pyridinyl)-6-((2-hydroxy-1,1-dimethylethyl)amino)-3-pyridinecarboxamide]
76.5 nM	CC(C)(CO)Nc1ccc(C(=O)Nc2cccc(N3CC(F)C3)n2)c(N2CCC3(CC2)CC3)n1 [Example 144, 2-(6-azaspiro[2.5]oct-6-yl)-N-(6-(3-fluoro-1-azetidinyl)-2-pyridinyl)-6-((1-hydroxy-2-methyl-2-propanyl)amino)-3-pyridinecarboxamide]
71 nM	Cc1cc(NC(=O)c2ccc(NC(C)(C)CO)nc2N2CCC3(CC2)CC3)nc(N2CCOCC2)c1 [Example 155, 2-(6-azaspiro[2.5]octan-6-yl)-6-((1-hydroxy-2-methyl-2-propanyl)amino)-N-(4-methyl-6-(4-morpholinyl)-2-pyridinyl)-3-pyridinecarboxamide]
16 nM	O=C(Nc1ccc(NS(=O)(=O)CCO)cc1N1CCC2(CC1)CC2)c1cccc(N2CCC(F)(F)CC2)n1 [Example 248, 6-(4,4-difluoropiperidin-1-yl)-N-(4-((2-hydroxyethyl)sulfonamido)-2-(6-azaspiro[2.5]octan-6-yl)phenyl)picolinamide]
